The text below walks through data of patent US10590153B2, “Process for producing crystalline DTPMP” (Zschimmer & Schwarz Mohsdorf GmbH & Co. KG, priority 2014, dated 2020).

One data set is described as follows: Drying behaviour of crystallisates in dependence on residual moisture and product purity (tempering in sealed vials, visual points classification). In kind it is physicochemical. The arrangement: key: 5 points=sample unchanged; 4 points=sample compacted/started to dissolve; 3 points=sample visibly started to dissolve; 2 points=sample cloudy highly viscous solution; 1 point=sample dissolved to clear solution. The conditions noted are these: Temperature 35 °C, test duration 24 h, sealed vial, shaken. As to the method: This dependency is shown by the following example for determining the drying behaviour of crystallisates in dependence on residual moisture and product purity.
A DTPMP solid isolated by recrystallisation is characterised by residues of adhering mother liquor via the quality parameters listed in the following table. Determination of the residual moisture content by means of a halogen dryer HB 43 S/Mettler Toledo is carried out isothermally at the indicated temperature using the shutoff criterion 4 (AK4=mean weight loss is <1 mg per 90 seconds):
After a purification step, which consists in suspending the solid in water and then separating it off by means of a filtering centrifuge, the following quality criteria are obtained:
The adhering residual moisture is removed stepwise from these solid samples in a rotary evaporator at 40° C. and 5 mbar vacuum, so that a series of samples with decreasing residual moisture content is prepared from each of the two purity grades (unwashed and washed).
4 ml borosilicate vials are filled with this sample material and the filling level is adjusted to ⅔ of the height of the glass by gentle tapping. In order to minimise evaporative losses, the screw cap of each vial is additionally sealed with a polyethylene film. All the samples are shaken in parallel in a tempering block on a heating and cooling shaker ThermoTwister comfort/Quantifoil Instruments GmbH for a defined period at a defined temperature and then assessed visually. Classification is made according to the following points system: […]
As for `O=P(O)(O)CN(CCN(CP(=O)(O)O)CP(=O)(O)O)CCN(CP(=O)(O)O)CP(=O)(O)O` [unwashed quality 19 [% by mass] residual moisture], the “Visual classification at the end of the tempering step (points system)” value (“Visual classification at the end” below) is 5.

`O=P(O)(O)CN(CCN(CP(=O)(O)O)CP(=O)(O)O)CCN(CP(=O)(O)O)CP(=O)(O)O` [unwashed quality 24 [% by mass] residual moisture]: the “Visual classification at the end” value came out at 5.

With `O=P(O)(O)CN(CCN(CP(=O)(O)O)CP(=O)(O)O)CCN(CP(=O)(O)O)CP(=O)(O)O` [unwashed quality 31 [% by mass] residual moisture], the “Visual classification at the end” value was 5.

Consider `O=P(O)(O)CN(CCN(CP(=O)(O)O)CP(=O)(O)O)CCN(CP(=O)(O)O)CP(=O)(O)O` [unwashed quality 36 [% by mass] residual moisture], for which the “Visual classification at the end” value was 5.

The same data set, now with this note: Temperature 40 °C, test duration 24 h, sealed vial, shaken.
Turning to `O=P(O)(O)CN(CCN(CP(=O)(O)O)CP(=O)(O)O)CCN(CP(=O)(O)O)CP(=O)(O)O` [unwashed quality 19 [% by mass] residual moisture], the “Visual classification at the end” value turned out to be 5.

Consider `O=P(O)(O)CN(CCN(CP(=O)(O)O)CP(=O)(O)O)CCN(CP(=O)(O)O)CP(=O)(O)O` [unwashed quality 24 [% by mass] residual moisture], for which the “Visual classification at the end” value stood at 5.

As to `O=P(O)(O)CN(CCN(CP(=O)(O)O)CP(=O)(O)O)CCN(CP(=O)(O)O)CP(=O)(O)O` [unwashed quality 31 [% by mass] residual moisture], the “Visual classification at the end” value was 5.

Turning to `O=P(O)(O)CN(CCN(CP(=O)(O)O)CP(=O)(O)O)CCN(CP(=O)(O)O)CP(=O)(O)O` [unwashed quality 36 [% by mass] residual moisture], the “Visual classification at the end” value is on record as 5.

The same data set, now with this note: Temperature 45 °C, test duration 24 h, sealed vial, shaken.
As to `O=P(O)(O)CN(CCN(CP(=O)(O)O)CP(=O)(O)O)CCN(CP(=O)(O)O)CP(=O)(O)O` [unwashed quality 19 [% by mass] residual moisture], the “Visual classification at the end” value turned out to be 5.

For the compound `O=P(O)(O)CN(CCN(CP(=O)(O)O)CP(=O)(O)O)CCN(CP(=O)(O)O)CP(=O)(O)O` [unwashed quality 24 [% by mass] residual moisture], the “Visual classification at the end” value stood at 5.

On to `O=P(O)(O)CN(CCN(CP(=O)(O)O)CP(=O)(O)O)CCN(CP(=O)(O)O)CP(=O)(O)O` [unwashed quality 31 [% by mass] residual moisture], for which the “Visual classification at the end” value is given as 5.

As for `O=P(O)(O)CN(CCN(CP(=O)(O)O)CP(=O)(O)O)CCN(CP(=O)(O)O)CP(=O)(O)O` [unwashed quality 36 [% by mass] residual moisture], the “Visual classification at the end” value is reported as 5.

The same data set, now with this note: Temperature 50 °C, test duration 24 h, sealed vial, shaken.
Consider `O=P(O)(O)CN(CCN(CP(=O)(O)O)CP(=O)(O)O)CCN(CP(=O)(O)O)CP(=O)(O)O` [unwashed quality 19 [% by mass] residual moisture], for which the “Visual classification at the end” value is reported as 5.

With `O=P(O)(O)CN(CCN(CP(=O)(O)O)CP(=O)(O)O)CCN(CP(=O)(O)O)CP(=O)(O)O` [unwashed quality 24 [% by mass] residual moisture], the “Visual classification at the end” value was 4.

As to `O=P(O)(O)CN(CCN(CP(=O)(O)O)CP(=O)(O)O)CCN(CP(=O)(O)O)CP(=O)(O)O` [unwashed quality 31 [% by mass] residual moisture], the “Visual classification at the end” value worked out at 5.

As to `O=P(O)(O)CN(CCN(CP(=O)(O)O)CP(=O)(O)O)CCN(CP(=O)(O)O)CP(=O)(O)O` [unwashed quality 36 [% by mass] residual moisture], the “Visual classification at the end” value came out at 5.

The same data set, now with this note: Temperature 55 °C, test duration 24 h, sealed vial, shaken.
As for `O=P(O)(O)CN(CCN(CP(=O)(O)O)CP(=O)(O)O)CCN(CP(=O)(O)O)CP(=O)(O)O` [unwashed quality 19 [% by mass] residual moisture], the “Visual classification at the end” value is given as 5.

Turning to `O=P(O)(O)CN(CCN(CP(=O)(O)O)CP(=O)(O)O)CCN(CP(=O)(O)O)CP(=O)(O)O` [unwashed quality 24 [% by mass] residual moisture], the “Visual classification at the end” value is 4.

Take `O=P(O)(O)CN(CCN(CP(=O)(O)O)CP(=O)(O)O)CCN(CP(=O)(O)O)CP(=O)(O)O` [unwashed quality 31 [% by mass] residual moisture]: the “Visual classification at the end” value is 4.

Take `O=P(O)(O)CN(CCN(CP(=O)(O)O)CP(=O)(O)O)CCN(CP(=O)(O)O)CP(=O)(O)O` [unwashed quality 36 [% by mass] residual moisture]: the “Visual classification at the end” value was 5.

Still in this data set, the particulars now being: Temperature 60 °C, test duration 24 h, sealed vial, shaken.
For the compound `O=P(O)(O)CN(CCN(CP(=O)(O)O)CP(=O)(O)O)CCN(CP(=O)(O)O)CP(=O)(O)O` [unwashed quality 19 [% by mass] residual moisture], the “Visual classification at the end” value came out at 4.

Regarding `O=P(O)(O)CN(CCN(CP(=O)(O)O)CP(=O)(O)O)CCN(CP(=O)(O)O)CP(=O)(O)O` [unwashed quality 24 [% by mass] residual moisture], the “Visual classification at the end” value was determined as 3.

As for `O=P(O)(O)CN(CCN(CP(=O)(O)O)CP(=O)(O)O)CCN(CP(=O)(O)O)CP(=O)(O)O` [unwashed quality 31 [% by mass] residual moisture], the “Visual classification at the end” value came to 3.

On to `O=P(O)(O)CN(CCN(CP(=O)(O)O)CP(=O)(O)O)CCN(CP(=O)(O)O)CP(=O)(O)O` [unwashed quality 36 [% by mass] residual moisture], for which the “Visual classification at the end” value was 3.

Still in this data set, the particulars now being: Temperature 65 °C, test duration 5 h, sealed vial, shaken.
For `O=P(O)(O)CN(CCN(CP(=O)(O)O)CP(=O)(O)O)CCN(CP(=O)(O)O)CP(=O)(O)O` [unwashed quality 19 [% by mass] residual moisture], the “Visual classification at the end” value was found to be 2.

Take `O=P(O)(O)CN(CCN(CP(=O)(O)O)CP(=O)(O)O)CCN(CP(=O)(O)O)CP(=O)(O)O` [unwashed quality 24 [% by mass] residual moisture]: the “Visual classification at the end” value came to 2.

Turning to `O=P(O)(O)CN(CCN(CP(=O)(O)O)CP(=O)(O)O)CCN(CP(=O)(O)O)CP(=O)(O)O` [unwashed quality 31 [% by mass] residual moisture], the “Visual classification at the end” value worked out at 1.

Turning to `O=P(O)(O)CN(CCN(CP(=O)(O)O)CP(=O)(O)O)CCN(CP(=O)(O)O)CP(=O)(O)O` [unwashed quality 36 [% by mass] residual moisture], the “Visual classification at the end” value is reported as 1.

The data set is the same for the next values; noted with them: Temperature 70 °C, test duration 5 h, sealed vial, shaken.
For the compound `O=P(O)(O)CN(CCN(CP(=O)(O)O)CP(=O)(O)O)CCN(CP(=O)(O)O)CP(=O)(O)O` [unwashed quality 19 [% by mass] residual moisture], the “Visual classification at the end” value came out at 2.

Consider `O=P(O)(O)CN(CCN(CP(=O)(O)O)CP(=O)(O)O)CCN(CP(=O)(O)O)CP(=O)(O)O` [unwashed quality 24 [% by mass] residual moisture], for which the “Visual classification at the end” value came to 1.

Consider `O=P(O)(O)CN(CCN(CP(=O)(O)O)CP(=O)(O)O)CCN(CP(=O)(O)O)CP(=O)(O)O` [unwashed quality 31 [% by mass] residual moisture], for which the “Visual classification at the end” value was 1.

On to `O=P(O)(O)CN(CCN(CP(=O)(O)O)CP(=O)(O)O)CCN(CP(=O)(O)O)CP(=O)(O)O` [unwashed quality 36 [% by mass] residual moisture], for which the “Visual classification at the end” value is 1.

Still in this data set, the particulars now being: Temperature 75 °C, test duration 5 h, sealed vial, shaken.
On to `O=P(O)(O)CN(CCN(CP(=O)(O)O)CP(=O)(O)O)CCN(CP(=O)(O)O)CP(=O)(O)O` [unwashed quality 19 [% by mass] residual moisture], for which the “Visual classification at the end” value turned out to be 2.

Take `O=P(O)(O)CN(CCN(CP(=O)(O)O)CP(=O)(O)O)CCN(CP(=O)(O)O)CP(=O)(O)O` [unwashed quality 24 [% by mass] residual moisture]: the “Visual classification at the end” value came out at 1.

`O=P(O)(O)CN(CCN(CP(=O)(O)O)CP(=O)(O)O)CCN(CP(=O)(O)O)CP(=O)(O)O` [unwashed quality 31 [% by mass] residual moisture]: the “Visual classification at the end” value came to 1.

For `O=P(O)(O)CN(CCN(CP(=O)(O)O)CP(=O)(O)O)CCN(CP(=O)(O)O)CP(=O)(O)O` [unwashed quality 36 [% by mass] residual moisture], the “Visual classification at the end” value is reported as 1.

Staying with this data set, now noted: Temperature 80 °C, test duration 5 h, sealed vial, shaken.
In the case of `O=P(O)(O)CN(CCN(CP(=O)(O)O)CP(=O)(O)O)CCN(CP(=O)(O)O)CP(=O)(O)O` [unwashed quality 19 [% by mass] residual moisture], the “Visual classification at the end” value came out at 2.

Regarding `O=P(O)(O)CN(CCN(CP(=O)(O)O)CP(=O)(O)O)CCN(CP(=O)(O)O)CP(=O)(O)O` [unwashed quality 24 [% by mass] residual moisture], the “Visual classification at the end” value is reported as 1.

With `O=P(O)(O)CN(CCN(CP(=O)(O)O)CP(=O)(O)O)CCN(CP(=O)(O)O)CP(=O)(O)O` [unwashed quality 31 [% by mass] residual moisture], the “Visual classification at the end” value turned out to be 1.

Turning to `O=P(O)(O)CN(CCN(CP(=O)(O)O)CP(=O)(O)O)CCN(CP(=O)(O)O)CP(=O)(O)O` [unwashed quality 36 [% by mass] residual moisture], the “Visual classification at the end” value came to 1.

Staying with this data set, now noted: Temperature 85 °C, test duration 5 h, sealed vial, shaken.
Regarding `O=P(O)(O)CN(CCN(CP(=O)(O)O)CP(=O)(O)O)CCN(CP(=O)(O)O)CP(=O)(O)O` [unwashed quality 19 [% by mass] residual moisture], the “Visual classification at the end” value was 2.

`O=P(O)(O)CN(CCN(CP(=O)(O)O)CP(=O)(O)O)CCN(CP(=O)(O)O)CP(=O)(O)O` [unwashed quality 24 [% by mass] residual moisture]: the “Visual classification at the end” value came out at 1.

For `O=P(O)(O)CN(CCN(CP(=O)(O)O)CP(=O)(O)O)CCN(CP(=O)(O)O)CP(=O)(O)O` [unwashed quality 31 [% by mass] residual moisture], the “Visual classification at the end” value came out at 1.

Regarding `O=P(O)(O)CN(CCN(CP(=O)(O)O)CP(=O)(O)O)CCN(CP(=O)(O)O)CP(=O)(O)O` [unwashed quality 36 [% by mass] residual moisture], the “Visual classification at the end” value was 1.

Still in this data set, the particulars now being: Temperature 90 °C, test duration 5 h, sealed vial, shaken.
In the case of `O=P(O)(O)CN(CCN(CP(=O)(O)O)CP(=O)(O)O)CCN(CP(=O)(O)O)CP(=O)(O)O` [unwashed quality 19 [% by mass] residual moisture], the “Visual classification at the end” value turned out to be 2.

On to `O=P(O)(O)CN(CCN(CP(=O)(O)O)CP(=O)(O)O)CCN(CP(=O)(O)O)CP(=O)(O)O` [unwashed quality 24 [% by mass] residual moisture], for which the “Visual classification at the end” value is reported as 1.

`O=P(O)(O)CN(CCN(CP(=O)(O)O)CP(=O)(O)O)CCN(CP(=O)(O)O)CP(=O)(O)O` [unwashed quality 31 [% by mass] residual moisture]: the “Visual classification at the end” value was found to be 1.

As to `O=P(O)(O)CN(CCN(CP(=O)(O)O)CP(=O)(O)O)CCN(CP(=O)(O)O)CP(=O)(O)O` [unwashed quality 36 [% by mass] residual moisture], the “Visual classification at the end” value came out at 1.
